± gives the expanded uncertainty stated by the source.
Details: Liquid, Gas chromatography

| SMILES | vapor or sublimation pressure (308.15 K) [kPa] | vapor or sublimation pressure (318.15 K) [kPa] | vapor or sublimation pressure (328.15 K) [kPa] | vapor or sublimation pressure (338.15 K) [kPa] | vapor or sublimation pressure (348.15 K) [kPa] | vapor or sublimation pressure (358.15 K) [kPa] | vapor or sublimation pressure (368.15 K) [kPa] | vapor or sublimation pressure (378.15 K) [kPa] | vapor or sublimation pressure (388.15 K) [kPa] | vapor or sublimation pressure (398.15 K) [kPa] | vapor or sublimation pressure (408.15 K) [kPa] | vapor or sublimation pressure (418.15 K) [kPa] | vapor or sublimation pressure (428.15 K) [kPa] | vapor or sublimation pressure (438.15 K) [kPa] |
| --- | --- | --- | --- | --- | --- | --- | --- | --- | --- | --- | --- | --- | --- | --- |
| C[Si](C)(C)O[Si](C)(C)O[Si](C)(C)O[Si](C)(C)O[Si](C)(C)O[Si](C)(C)O[Si](C)(C)O[Si](C)(C)O[Si](C)(C)O[Si](C)(C)C [docosamethyldecasiloxane] |  |  |  |  |  |  | 0.0007152 ± 0.00015 | 0.001861 ± 0.00039 | 0.00461 ± 0.00098 | 0.01091 ± 0.0023 | 0.02475 ± 0.0053 | 0.054 ± 0.011 | 0.1136 ± 0.024 | 0.231 ± 0.049 |
| C[Si](C)(C)O[Si](C)(C)O[Si](C)(C)O[Si](C)(C)O[Si](C)(C)C [dodecamethylpentasiloxane] |  |  |  | 0.09498 ± 0.02 | 0.1719 ± 0.036 | 0.3011 ± 0.064 | 0.5114 ± 0.11 | 0.8448 ± 0.18 | 1.36 ± 0.29 | 2.137 ± 0.45 | 3.284 ± 0.7 |  |  |  |
| C[Si](C)(C)O[Si](C)(C)O[Si](C)(C)O[Si](C)(C)O[Si](C)(C)O[Si](C)(C)O[Si](C)(C)O[Si](C)(C)O[Si](C)(C)C [eicosamethylnonasiloxane] |  |  |  |  | 0.0004156 ± 8.8e-05 | 0.001098 ± 0.00023 | 0.002752 ± 0.00058 | 0.006569 ± 0.0014 | 0.015 ± 0.0032 | 0.03284 ± 0.007 | 0.0692 ± 0.015 | 0.1407 ± 0.03 | 0.2769 ± 0.059 | 0.5281 ± 0.11 |
| C[Si](C)(C)O[Si](C)(C)O[Si](C)(C)O[Si](C)(C)O[Si](C)(C)O[Si](C)(C)O[Si](C)(C)O[Si](C)(C)O[Si](C)(C)O[Si](C)(C)O[Si](C)(C)O[Si](C)(C)C [hexacosamethyldodecasiloxane] |  |  |  |  |  |  |  |  | 0.0004593 ± 9.7e-05 | 0.001256 ± 0.00027 | 0.00327 ± 0.00069 | 0.008134 ± 0.0017 | 0.01939 ± 0.0041 | 0.04441 ± 0.0094 |
| C[Si](C)(C)O[Si](C)(C)O[Si](C)(C)O[Si](C)(C)O[Si](C)(C)O[Si](C)(C)O[Si](C)(C)C [hexadecamethylheptasiloxane] |  |  |  | 0.003586 ± 0.00076 | 0.008232 ± 0.0017 | 0.01804 ± 0.0038 | 0.03789 ± 0.008 | 0.07651 ± 0.016 | 0.149 ± 0.032 | 0.2806 ± 0.06 | 0.5124 ± 0.11 | 0.909 ± 0.19 | 1.57 ± 0.33 | 2.645 ± 0.56 |
| C[Si](C)(C)O[Si](C)(C)O[Si](C)(C)O[Si](C)(C)O[Si](C)(C)O[Si](C)(C)O[Si](C)(C)O[Si](C)(C)O[Si](C)(C)O[Si](C)(C)O[Si](C)(C)O[Si](C)(C)O[Si](C)(C)C [octacosamethyltridecasiloxane] |  |  |  |  |  |  |  |  |  | 0.0004326 ± 9.2e-05 | 0.001205 ± 0.00026 | 0.003194 ± 0.00068 | 0.008092 ± 0.0017 | 0.01965 ± 0.0042 |
| C[Si](C)(C)O[Si](C)(C)O[Si](C)(C)O[Si](C)(C)O[Si](C)(C)O[Si](C)(C)O[Si](C)(C)O[Si](C)(C)C [octadecamethyloctasiloxane] |  |  |  | 0.0007271 ± 0.00015 | 0.001846 ± 0.00039 | 0.004449 ± 0.00094 | 0.01022 ± 0.0022 | 0.02248 ± 0.0048 | 0.04747 ± 0.01 | 0.09653 ± 0.02 | 0.1896 ± 0.04 | 0.3605 ± 0.077 | 0.6654 ± 0.14 | 1.194 ± 0.25 |
| C[Si](C)(C)O[Si](C)(C)O[Si](C)(C)O[Si](C)(C)O[Si](C)(C)O[Si](C)(C)O[Si](C)(C)O[Si](C)(C)O[Si](C)(C)O[Si](C)(C)O[Si](C)(C)C [tetracosamethylundecasiloxane] |  |  |  |  |  |  |  | 0.0005391 ± 0.00011 | 0.001446 ± 0.00031 | 0.003689 ± 0.00078 | 0.008993 ± 0.0019 | 0.02101 ± 0.0045 | 0.04716 ± 0.01 | 0.102 ± 0.022 |
| C[Si](C)(C)O[Si](C)(C)O[Si](C)(C)O[Si](C)(C)O[Si](C)(C)O[Si](C)(C)C [tetradecamethylhexasiloxane] |  |  |  | 0.01845 ± 0.0039 | 0.03767 ± 0.008 | 0.07392 ± 0.016 | 0.1398 ± 0.03 | 0.2557 ± 0.054 | 0.4533 ± 0.096 | 0.7809 ± 0.17 | 1.31 ± 0.28 | 2.143 ± 0.45 | 3.427 ± 0.73 | 5.364 ± 1.1 |

Results, then the compound that gave them:

| vapor or sublimation pressure (308.15 K) [kPa] | vapor or sublimation pressure (318.15 K) [kPa] | vapor or sublimation pressure (328.15 K) [kPa] | vapor or sublimation pressure (338.15 K) [kPa] | vapor or sublimation pressure (348.15 K) [kPa] | vapor or sublimation pressure (358.15 K) [kPa] | vapor or sublimation pressure (368.15 K) [kPa] | vapor or sublimation pressure (378.15 K) [kPa] | vapor or sublimation pressure (388.15 K) [kPa] | vapor or sublimation pressure (398.15 K) [kPa] | vapor or sublimation pressure (408.15 K) [kPa] | vapor or sublimation pressure (418.15 K) [kPa] | vapor or sublimation pressure (428.15 K) [kPa] | vapor or sublimation pressure (438.15 K) [kPa] | SMILES |
| --- | --- | --- | --- | --- | --- | --- | --- | --- | --- | --- | --- | --- | --- | --- |
| 0.04458 ± 0.0095 | 0.09293 ± 0.02 | 0.1853 ± 0.039 | 0.3545 ± 0.075 | 0.6537 ± 0.14 | 1.165 ± 0.25 | 2.011 ± 0.43 |  |  |  |  |  |  |  | C[Si]1(C)O[Si](C)(C)O[Si](C)(C)O[Si](C)(C)O[Si](C)(C)O1 [decamethylcyclopentasiloxane] |
|  |  |  | 0.04948 ± 0.01 | 0.09584 ± 0.02 | 0.1789 ± 0.038 | 0.3228 ± 0.069 | 0.5646 ± 0.12 | 0.9595 ± 0.2 | 1.588 ± 0.34 | 2.563 ± 0.54 | 4.044 ± 0.86 |  |  | C[Si]1(C)O[Si](C)(C)O[Si](C)(C)O[Si](C)(C)O[Si](C)(C)O[Si](C)(C)O1 [dodecamethylcyclohexasiloxane] |
|  |  |  | 0.002101 ± 0.00045 | 0.004912 ± 0.001 | 0.01095 ± 0.0023 | 0.02337 ± 0.005 | 0.04791 ± 0.01 | 0.09466 ± 0.02 | 0.1807 ± 0.038 | 0.3344 ± 0.071 | 0.6006 ± 0.13 |  |  | C[Si]1(C)O[Si](C)(C)O[Si](C)(C)O[Si](C)(C)O[Si](C)(C)O[Si](C)(C)O[Si](C)(C)O[Si](C)(C)O1 [hexadecamethylcyclooctasiloxane] |
|  |  |  |  |  | 0.0008201 ± 0.00017 | 0.002003 ± 0.00042 | 0.004666 ± 0.00099 | 0.01041 ± 0.0022 | 0.02229 ± 0.0047 | 0.046 ± 0.0098 | 0.09169 ± 0.019 |  |  | C[Si]1(C)O[Si](C)(C)O[Si](C)(C)O[Si](C)(C)O[Si](C)(C)O[Si](C)(C)O[Si](C)(C)O[Si](C)(C)O[Si](C)(C)O[Si](C)(C)O1 [icosamethylcyclodecasiloxane] |
|  |  |  | 0.0004734 ± 0.0001 | 0.0012 ± 0.00025 | 0.002888 ± 0.00061 | 0.006628 ± 0.0014 | 0.01455 ± 0.0031 | 0.03069 ± 0.0065 | 0.06234 ± 0.013 | 0.1223 ± 0.026 | 0.2323 ± 0.049 |  |  | C[Si]1(C)O[Si](C)(C)O[Si](C)(C)O[Si](C)(C)O[Si](C)(C)O[Si](C)(C)O[Si](C)(C)O[Si](C)(C)O[Si](C)(C)O1 [octadecamethylcyclononasiloxane] |
| 0.2359 ± 0.05 | 0.4269 ± 0.091 | 0.7452 ± 0.16 | 1.259 ± 0.27 | 2.063 ± 0.44 | 3.289 ± 0.7 | 5.113 ± 1.1 |  |  |  |  |  |  |  | C[Si]1(C)O[Si](C)(C)O[Si](C)(C)O[Si](C)(C)O1 [octamethylcyclotetrasiloxane] |
|  |  |  | 0.01 ± 0.0021 | 0.0213 ± 0.0045 | 0.04349 ± 0.0092 | 0.08542 ± 0.018 | 0.1619 ± 0.034 | 0.2968 ± 0.063 | 0.528 ± 0.11 | 0.9129 ± 0.19 | 1.538 ± 0.33 |  |  | C[Si]1(C)O[Si](C)(C)O[Si](C)(C)O[Si](C)(C)O[Si](C)(C)O[Si](C)(C)O[Si](C)(C)O1 [tetradecamethylcycloheptasiloxane] |

Source: the NIST ThermoML archive (doi:10.1021/je100835n)
